# Results published in the supplement of paper PMC11208160.
# Assay: recombinant barcode read abundance after kanamycin selection (control-corrected) (log10(CPM+1)); higher = more efficient recombination; sequences stand for … in AGTGCAGAGAAAATCGGCCAGTTTTCTCTGCCTGCAGTCCGCATGCCGT…AGATTTATGCAGCGGACTGCCTTTCTCCCAAAGTGATAAACCGGACAGTATCATGGACCGGTTTTCCCGGTAATCCGTATTTGCAAGGTTGGTTTCACT; site = the 11-nt target
# Procedure, shortened: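 Reported as log10(CPM+1), each value stands for recombination efficiency. That efficiency is the averaged, control-corrected counts per million of barcodes found at recombinant junctions. Cells from a pooled E. coli library pairing targets with IS621 bridge RNA target-binding loops were plated twice on chloramphenicol/ampicillin LB agar (control) and twice on chloramphenicol/ampicillin/kanamycin with 0.1 mM IPTG.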
# 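Note: IS621 recombinase and bridge RNA in Escherichia coli cells.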
row,Sequence,recombinant barcode read abundance (log10)
1,GAGAGTACTTGGGTTCTAACCTGTTGCAT (site GAGAGTACTAT),0.982
2,GAGAGTACTTGGGTTCTAACCTGTTGCAT (site GAGCGTACTAT),0.16
3,GAGAGTACTTGGGTTCTAACCTGTTGCAT (site GAGGGTACTAT),0.654
4,GAGAGTACTTGGGTTCTAACCTGTTGCAT (site GAGTGTACTAT),0.0293
5,GAGATCCCTTGGGTTCTAACCTGTTGCCT (site GAGATCCCTAG),2.03
6,GAGATCCCTTGGGTTCTAACCTGTTGCCT (site GTGATCCCTAG),0.422
7,GAGCCTCCTTGGGTTCTAACCTGTTGCAT (site ACCAGGACTCG),0.136
8,GAGCCTCCTTGGGTTCTAACCTGTTGCAT (site GAGCCTCCTAT),1.81
9,GAGCCTTCTTGGGTTCTAACCTGTTGCAG (site AAGCCTTCTCA),0.0383
10,GAGCCTTCTTGGGTTCTAACCTGTTGCAG (site GAGCCTTCTCT),1.46
11,GAGCGAGCTTGGGTTCTAACCTGTTGCAG (site GAGCGAGCTCA),0.578
12,GAGCGAGCTTGGGTTCTAACCTGTTGCAG (site GAGCGAGCTCC),0.322
13,GAGCGAGCTTGGGTTCTAACCTGTTGCAG (site GAGCGAGCTCG),0.175
14,GAGCGAGCTTGGGTTCTAACCTGTTGCAG (site GAGCGAGCTCT),1.46
15,GAGCGAGCTTGGGTTCTAACCTGTTGCAT (site GAGAGAGCTAT),0.0856
16,GAGCGAGCTTGGGTTCTAACCTGTTGCAT (site GAGCGAGCTAT),1.94
17,GAGCGAGCTTGGGTTCTAACCTGTTGCAT (site GAGGGAGCTAT),0.0637
18,GAGCGAGCTTGGGTTCTAACCTGTTGCAT (site GAGTGAGCTAT),0.735
19,GAGCGCACTTGGGTTCTAACCTGTTGCAG (site GAGCGCACTCC),0.27
20,GAGCGCACTTGGGTTCTAACCTGTTGCAG (site GAGCGCACTCT),1.7
21,GAGCGCTCTTGGGTTCTAACCTGTTGCTT (site GAGCGCTCTAA),1.22
22,GAGCGCTCTTGGGTTCTAACCTGTTGCTT (site GAGCGCTCTCA),0.0723

row,Sequence,recombinant barcode read abundance (log10)
1,GAGCGCTCTTGGGTTCTAACCTGTTGCTT (site GAGCGCTCTGA),0.088
2,GAGCGCTCTTGGGTTCTAACCTGTTGCTT (site GAGCGCTCTTA),0.269
3,GAGCGGACTTGGGTTCTAACCTGTTGCCT (site GAGCAGACTAG),0.698
4,GAGCGGACTTGGGTTCTAACCTGTTGCCT (site GAGCCGACTAG),0.388
5,GAGCGGACTTGGGTTCTAACCTGTTGCCT (site GAGCGGACTAG),1.68
6,GAGCGGACTTGGGTTCTAACCTGTTGCCT (site GAGCTGACTAG),0.129
7,GAGCTACCTTGGGTTCTAACCTGTTGCCA (site GAGCTACCTAG),0.796
8,GAGCTACCTTGGGTTCTAACCTGTTGCCA (site GAGCTACCTCG),0.213
9,GAGCTACCTTGGGTTCTAACCTGTTGCCA (site GAGCTACCTGG),0.13
10,GAGCTACCTTGGGTTCTAACCTGTTGCCA (site GAGCTACCTTG),1.11
11,GAGCTACCTTGGGTTCTAACCTGTTGCCG (site GAGCTACCTAG),0.837
12,GAGCTACCTTGGGTTCTAACCTGTTGCCG (site GAGCTACCTCG),1.11
13,GAGCTACCTTGGGTTCTAACCTGTTGCCG (site GAGCTACCTGG),0.0124
14,GAGCTACCTTGGGTTCTAACCTGTTGCCG (site GAGCTACCTTG),0.214
15,GAGCTCACTTGGGTTCTAACCTGTTGCCA (site GAGCACCCTTG),0.0579
16,GAGCTCACTTGGGTTCTAACCTGTTGCCA (site GAGCTCACTTG),0.514
17,GAGCTGACTTGGGTTCTAACCTGTTGCCT (site GAGCAGACTAG),0.182
18,GAGCTGACTTGGGTTCTAACCTGTTGCCT (site GAGCCGACTAG),0.488
19,GAGCTGACTTGGGTTCTAACCTGTTGCCT (site GAGCGGACTAG),0.0812
20,GAGCTGACTTGGGTTCTAACCTGTTGCCT (site GAGCTGACTAG),1.49
21,GAGCTTGCTTGGGTTCTAACCTGTTGCGA (site GAGCTTGCTTC),0.949
22,GAGCTTGCTTGGGTTCTAACCTGTTGCGA (site TGCGGGTCTAG),0.122

row,Sequence,recombinant barcode read abundance (log10)
1,GAGGACTCTTGGGTTCTAACCTGTTGCCT (site GAGGACTCTAG),3
2,GAGGACTCTTGGGTTCTAACCTGTTGCCT (site GAGGACTCTCG),0.0247
3,GAGGACTCTTGGGTTCTAACCTGTTGCCT (site GAGGACTCTGG),1.29
4,GAGGACTCTTGGGTTCTAACCTGTTGCCT (site GAGGACTCTTG),0.0974
5,GAGGCTCCTTGGGTTCTAACCTGTTGCGT (site GAAGCTCCTAC),1.54
6,GAGGCTCCTTGGGTTCTAACCTGTTGCGT (site GAGGCTCCTAC),2.97
7,GAGGGCCCTTGGGTTCTAACCTGTTGCAG (site GAGGGCCCTCA),2.07
8,GAGGGCCCTTGGGTTCTAACCTGTTGCAG (site GAGGGCCCTCC),0.926
9,GAGGGCCCTTGGGTTCTAACCTGTTGCAG (site GAGGGCCCTCG),1.4
10,GAGGGCCCTTGGGTTCTAACCTGTTGCAG (site GAGGGCCCTCT),2.88
11,GAGGGCCCTTGGGTTCTAACCTGTTGCCT (site AAGGGCCCTAG),1.38
12,GAGGGCCCTTGGGTTCTAACCTGTTGCCT (site CAGGGCCCTAG),1.04
13,GAGGGCCCTTGGGTTCTAACCTGTTGCCT (site GAGGGCCCTAG),2.41
14,GAGGGCCCTTGGGTTCTAACCTGTTGCCT (site TAGGGCCCTAG),1.04
15,GAGGGTCCTTGGGTTCTAACCTGTTGCCT (site GAGGGTCCTAA),0.451
16,GAGGGTCCTTGGGTTCTAACCTGTTGCCT (site GAGGGTCCTAC),0.133
17,GAGGGTCCTTGGGTTCTAACCTGTTGCCT (site GAGGGTCCTAG),2.56
18,GAGGGTCCTTGGGTTCTAACCTGTTGCCT (site GAGGGTCCTAT),0.457
19,GAGGGTCCTTGGGTTCTAACCTGTTGCTT (site GAGGGTCCTAA),2
20,GAGGGTCCTTGGGTTCTAACCTGTTGCTT (site GAGGGTCCTAC),0.598
21,GAGGGTCCTTGGGTTCTAACCTGTTGCTT (site GAGGGTCCTAG),1.72
22,GAGGGTCCTTGGGTTCTAACCTGTTGCTT (site GAGGGTCCTAT),1.83

row,Sequence,recombinant barcode read abundance (log10)
1,GAGGGTGCTTGGGTTCTAACCTGTTGCCT (site GAGGGTGCTAG),1.89
2,GAGGGTGCTTGGGTTCTAACCTGTTGCCT (site GAGGGTTCTAT),0.121
3,GAGGTATCTTGGGTTCTAACCTGTTGCCA (site GAGGTATCTAC),0.038
4,GAGGTATCTTGGGTTCTAACCTGTTGCCA (site GAGGTATCTTG),1.12
5,GAGGTATCTTGGGTTCTAACCTGTTGCTA (site GAGGTATCTAA),0.201
6,GAGGTATCTTGGGTTCTAACCTGTTGCTA (site GAGGTATCTTA),0.345
7,GAGGTGCCTTGGGTTCTAACCTGTTGCTG (site CTAACTACTAC),0.0482
8,GAGGTGCCTTGGGTTCTAACCTGTTGCTG (site GAGGTGCCTCA),2
9,GAGTCGCCTTGGGTTCTAACCTGTTGCCT (site GAGTCGCCTAG),0.263
10,GAGTCGCCTTGGGTTCTAACCTGTTGCCT (site GAGTCGTCTAG),0.118
11,GAGTCGCCTTGGGTTCTAACCTGTTGCGG (site GAGTAGCCTCC),0.0862
12,GAGTCGCCTTGGGTTCTAACCTGTTGCGG (site GAGTCGCCTCC),1.22
13,GAGTCGCCTTGGGTTCTAACCTGTTGCGG (site GAGTGGCCTCC),0.188
14,GAGTCGCCTTGGGTTCTAACCTGTTGCGG (site GAGTTGCCTCC),0.0886
15,GAGTCGGCTTGGGTTCTAACCTGTTGCTT (site GAGACGGCTAA),0.23
16,GAGTCGGCTTGGGTTCTAACCTGTTGCTT (site GAGCCGGCTAA),0
17,GAGTCGGCTTGGGTTCTAACCTGTTGCTT (site GAGGCGGCTAA),0.0495
18,GAGTCGGCTTGGGTTCTAACCTGTTGCTT (site GAGTCGGCTAA),0.778
19,GAGTCTACTTGGGTTCTAACCTGTTGCAG (site GAGTCTACTCG),0.339
20,GAGTCTACTTGGGTTCTAACCTGTTGCAG (site GAGTCTACTCT),0.494
